# Legend:
# velvetleaf = assay: Test B pre/postemergence velvetleaf; assay type: in vivo, Abutilon theophrasti
# Summary of the method: (§1)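 Test chemicals in a non-phytotoxic solvent mixture with surfactant were sprayed preemergence onto planted seeds and postemergence onto plants 2 to 18 cm tall (1- to 4-leaf stage). After twelve to sixteen days in a greenhouse, injury was visually rated against untreated controls from 0 (no effect) to 10 (complete control).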
# crabgrass = assay: Test B pre/postemergence crabgrass; assay type: in vivo, Digitaria sanguinalis
# Summary of the method: as §1
# rice = assay: Test B flood test rice; assay type: in vivo, Oryza sativa
# Summary of the method: (§2)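 Plants were grown to the 2-leaf stage before treatment with test chemical, then held in a greenhouse for twelve to sixteen days. Injury was visually rated against untreated controls on a 0–10 scale, where 0 is no effect and 10 is complete control.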
# bamyardgrass = assay: Test B flood test barnyardgrass; assay type: in vivo, Echinochloa crus-galli
# Summary of the method: as §2
# duck salad = assay: Test B flood test duck salad; assay type: in vivo, Heteranthera limosa
# Summary of the method: as §2
# wild oat = assay: Test B pre/postemergence wild oat; assay type: in vivo, Avena fatua
# Summary of the method: as §1
# corn = assay: Test B pre/postemergence corn; assay type: in vivo, Zea mays
# Summary of the method: as §1
# purple nutsedge = assay: Test B pre/postemergence purple nutsedge; assay type: in vivo, Cyperus rotundus; conditions: Preemergence
# Summary of the method: as §1
# surinam grass = assay: Test B pre/postemergence surinam grass; assay type: in vivo, Brachiaria decumbens
# Summary of the method: as §1
# sugar beet = assay: Test B pre/postemergence sugar beet; assay type: in vivo, Beta vulgaris
# Summary of the method: as §1
# soybean = assay: Test B pre/postemergence soybean; assay type: in vivo, Glycine max
# Summary of the method: as §1
# blackgrass = assay: Test B pre/postemergence blackgrass; assay type: in vivo, Alopecurus myosuroides
# Summary of the method: as §1
# smallflower flatsedge = assay: Test B flood test smallflower flatsedge; assay type: in vivo, Cyperus difformis
# Summary of the method: as §2
# bedstraw = assay: Test B pre/postemergence bedstraw; assay type: in vivo, Galium aparine
# Summary of the method: as §1
# cocklebur = assay: Test B pre/postemergence cocklebur; assay type: in vivo, Xanthium strumarium
# Summary of the method: as §1
# wheat = assay: Test B pre/postemergence wheat; assay type: in vivo, Triticum aestivum
# Summary of the method: as §1
# rape = assay: Test B pre/postemergence rape; assay type: in vivo, Brassica napus
# Summary of the method: as §1
# [1] = Postemergence, Rate 250 g/ha, scale 0 to 10, 0 no effect, 10 complete control
# [2] = Postemergence, Rate 1000 g/ha, scale 0 to 10 (0 no effect, 10 complete control)
# [3] = Preemergence, Rate 125 g/ha, scale 0 to 10 (0 no effect, 10 complete control)
# [4] = Preemergence, Rate 250 g/ha, scale of 0 to 10 where 0 is no effect and 10 is complete control
# [5] = Preemergence, Rate 500 g/ha, scale 0 (no effect) to 10 (complete control)
# [6] = Rate 125 g/ha, Postemergence, scale 0 to 10, 0 no effect, 10 complete control
# [7] = Rate 1000 g/ha, Preemergence, scale 0 to 10 (0 no effect, 10 complete control)
# [8] = Rate 500 g/ha, Postemergence, 0 to 10 scale (0 no effect, 10 complete control)
# [9] = Rate 125 g/ha, Postemergence section (flood test species), scale 0 to 10, 0 no effect, 10 complete control
# [10] = Rate 500 g/ha, Postemergence section of Table B, 0 to 10 scale (0 no effect, 10 complete control)
# [11] = flood test, listed under Postemergence, Rate 250 g/ha, scale 0 to 10, 0 no effect, 10 complete control
smiles,measurement,setting,value
COc1ccc(-n2c(=O)on(C(=O)N(C3=CCOCC3)C(C)C)c2=O)cc1 [Compound 6],Velvetleaf plant response rating,velvetleaf; [1],0
same,Velvetleaf plant response rating,velvetleaf; [2],1
same,"Plant response rating, Velvetleaf",velvetleaf; [3],0
same,"Plant response rating, Velvetleaf",velvetleaf; [4],2
same,Velvetleaf plant response rating,velvetleaf; [5],2
same,Velvetleaf plant response rating,velvetleaf; [6],0
same,"Plant response rating, Velvetleaf",velvetleaf; [7],4
same,Crabgrass plant response rating,crabgrass; [1],2
same,Crabgrass plant response rating,crabgrass; [2],7
same,"Plant response rating, Crabgrass",crabgrass; [3],7
same,Crabgrass plant response rating,crabgrass; [5],9
same,Crabgrass plant response rating,crabgrass; [6],0
same,Crabgrass plant response rating,crabgrass; [8],5
same,"Plant response rating, Crabgrass",crabgrass; [7],10
same,Rice plant response rating,rice; [2],3
same,Rice plant response rating,rice; [9],0
same,Rice plant response rating,rice; [10],0
same,Rice plant response rating,rice; [11],0
same,Barnyardgrass plant response rating,bamyardgrass; [2],8
same,Barnyardgrass plant response rating,bamyardgrass; [9],0
same,Barnyardgrass plant response rating,bamyardgrass; [10],0
same,Barnyardgrass plant response rating,bamyardgrass; [11],0
same,Ducksalad plant response rating,duck salad; [2],0
same,Ducksalad plant response rating,duck salad; [9],0
same,Ducksalad plant response rating,duck salad; [10],0
same,Ducksalad plant response rating,duck salad; [11],0
same,Wild oats plant response rating,wild oat; [1],0
same,Wild oats plant response rating,wild oat; [2],4
same,"Plant response rating, Wild oats",wild oat; [3],0
same,"Plant response rating, Wild oats",wild oat; [4],0
same,Wild oats plant response rating,wild oat; [5],3
same,Wild oats plant response rating,wild oat; [6],0
same,"Plant response rating, Wild oats",wild oat; [7],6
same,Corn plant response rating,corn; [1],0
same,Corn plant response rating,corn; [2],4
same,"Plant response rating, Corn",corn; [3],0
same,"Plant response rating, Corn",corn; [4],1
same,Corn plant response rating,corn; [5],2
same,Corn plant response rating,corn; [6],0
same,Corn plant response rating,corn; [8],0
same,"Plant response rating, Corn",corn; [7],5
same,"Plant response rating, Nutsedge","purple nutsedge; Rate 125 g/ha, scale 0 to 10 (0 no effect, 10 complete control)",0
same,"Plant response rating, Nutsedge","purple nutsedge; Rate 250 g/ha, scale of 0 to 10 where 0 is no effect and 10 is complete control",0
same,Nutsedge plant response rating,"purple nutsedge; Rate 500 g/ha, scale 0 (no effect) to 10 (complete control)",0
same,"Plant response rating, Nutsedge","purple nutsedge; Rate 1000 g/ha, scale 0 to 10 (0 no effect, 10 complete control)",0
same,B. signalgrass plant response rating,surinam grass; [1],2
same,B. signalgrass plant response rating,surinam grass; [2],7
same,"Plant response rating, B. signalgrass",surinam grass; [3],0
same,"Plant response rating, B. signalgrass",surinam grass; [4],0
same,B. signalgrass plant response rating,surinam grass; [5],0
same,B. signalgrass plant response rating,surinam grass; [6],0
same,B. signalgrass plant response rating,surinam grass; [8],5
same,"Plant response rating, B. signalgrass",surinam grass; [7],5
same,Sugarbeets plant response rating,sugar beet; [1],0
same,Sugarbeets plant response rating,sugar beet; [2],3
same,"Plant response rating, Sugarbeets",sugar beet; [3],0
same,"Plant response rating, Sugarbeets",sugar beet; [4],0
same,Sugarbeets plant response rating,sugar beet; [5],0
same,Sugarbeets plant response rating,sugar beet; [6],0
same,"Plant response rating, Sugarbeets",sugar beet; [7],0
same,Soybean plant response rating,soybean; [1],3
same,Soybean plant response rating,soybean; [2],6
same,"Plant response rating, Soybean",soybean; [3],0
same,"Plant response rating, Soybean",soybean; [4],0
same,Soybean plant response rating,soybean; [5],0
same,Soybean plant response rating,soybean; [6],3
same,"Plant response rating, Soybean",soybean; [7],0
same,Blackgrass plant response rating,blackgrass; [1],7
same,Blackgrass plant response rating,blackgrass; [2],7
same,"Plant response rating, Blackgrass",blackgrass; [3],0
same,"Plant response rating, Blackgrass",blackgrass; [4],0
same,Blackgrass plant response rating,blackgrass; [5],2
same,Blackgrass plant response rating,blackgrass; [6],4
same,Blackgrass plant response rating,blackgrass; [8],7
same,"Plant response rating, Blackgrass",blackgrass; [7],7
same,S. Flatsedge plant response rating,smallflower flatsedge; [2],3
same,S. Flatsedge plant response rating,smallflower flatsedge; [9],0
same,S. Flatsedge plant response rating,smallflower flatsedge; [11],0
same,Bedstraw plant response rating,bedstraw; [1],0
same,Bedstraw plant response rating,bedstraw; [2],3
same,"Plant response rating, Bedstraw",bedstraw; [3],0
same,"Plant response rating, Bedstraw",bedstraw; [4],0
same,Bedstraw plant response rating,bedstraw; [5],0
same,Bedstraw plant response rating,bedstraw; [6],0
same,Bedstraw plant response rating,bedstraw; [8],0
same,"Plant response rating, Bedstraw",bedstraw; [7],0
same,Cocklebur plant response rating,cocklebur; [1],0
same,Cocklebur plant response rating,cocklebur; [2],0
same,"Plant response rating, Cocklebur",cocklebur; [3],0
same,"Plant response rating, Cocklebur",cocklebur; [4],0
same,Cocklebur plant response rating,cocklebur; [5],0
same,Cocklebur plant response rating,cocklebur; [6],0
same,Cocklebur plant response rating,cocklebur; [8],0
same,"Plant response rating, Cocklebur",cocklebur; [7],2
same,Wheat plant response rating,wheat; [1],0
same,Wheat plant response rating,wheat; [2],0
same,"Plant response rating, Wheat",wheat; [3],0
same,"Plant response rating, Wheat",wheat; [4],0
same,Wheat plant response rating,wheat; [5],0
same,Wheat plant response rating,wheat; [6],0
same,"Plant response rating, Wheat",wheat; [7],3
same,Rape plant response rating,rape; [1],0
same,Rape plant response rating,rape; [2],2
same,"Plant response rating, Rape",rape; [3],0
same,"Plant response rating, Rape",rape; [4],0
same,Rape plant response rating,rape; [5],0
same,Rape plant response rating,rape; [6],0
same,Rape plant response rating,rape; [8],0
same,"Plant response rating, Rape",rape; [7],0

# — patent US6737383B1, “Herbicidal oxadiazolidines” (priority 1999, dated 2004)
